Values quoted from earlier work, collected in US20260117185A1, “ENHANCEMENT OF FIBROBLAST PLASTICITY FOR TREATMENT OF DISC DEGENERATION” (SPINALCYTE, LLC, priority 2018, published 2026).

What was measured:
mesenchymal stem cells = conditions: culture of cells with valproic acid
[1] = test system: in vitro pre-mature senescence model; conditions: valproic acid treatment
[2] = through the suppression of the p16/p21 pathway

With CCCC(CCC)C(=O)O [valproic acid] as the compound, how does the “immune regulatory and metabolic properties of mesenchymal stem cells” value (mesenchymal stem cells) read?
Its value is “enhanced immune regulatory and metabolic properties”.

What about the “G2/M phase blockage derived from the senescence stress” value [1] of the same compound?
The value was “inhibited the G2/M phase blockage”.

What about the apoptosis [1, 2] of the same compound?
The apoptosis was “inhibited apoptosis”.

What about the cell proliferation [1, 2] of the same compound?
Its cell proliferation is “increased cell proliferation”.
